ChEMBL document CHEMBL1201862, “PubChem BioAssay data set” (2004)
Calls of active or inactive are those of the source.

Tests used:
[1] = molecular target: T1, Cannabinoid receptor 2 (Homo sapiens, UniProt P34972); assay: SAR analysis of antagonists of the Cannabinoid Receptor 2 using an Image-Based Assay - Set 2. [Related pubchem assays (depositor defined):AID1961, AID1965]; format: functional
[2] = molecular target: T1, Cannabinoid receptor 2; assay: SAR analysis of agonists of the Cannabinoid Receptor 2 using an Image-Based Assay - Set 2. [Related pubchem assays (depositor defined):AID1961, AID1965]; format: functional
[3] = molecular target: T2, Cannabinoid receptor 1 (Homo sapiens, UniProt P21554); assay: SAR analysis of agonists of the Cannabinoid Receptor 1 using an Image-Based Assay - Set 3. [Related pubchem assays (depositor defined):AID1961, AID1965]; format: functional
[4] = molecular target: T3, G-protein coupled receptor 35 (Homo sapiens, UniProt Q9HC97); assay: SAR analysis of Agonists of the GPR35 Receptor using an Image-Based Assay - Set 3. [Related pubchem assays (depositor defined):AID1961, AID1965]; format: functional
[5] = molecular target: T3, G-protein coupled receptor 35; assay: SAR analysis of Antagonists of the GPR35 Receptor using an Image-Based Assay - Set 4. [Related pubchem assays (depositor defined):[…]]; format: functional
[6] = molecular target: G-protein coupled receptor 55 (Homo sapiens, UniProt Q9Y2T6); assay: SAR analysis of selective Agonists of GPR55 using an Image-Based Assay - Set 2. [Related pubchem assays (depositor defined):AID1961, AID1965]; format: functional
[7] = molecular target: T2, Cannabinoid receptor 1; assay: SAR analysis of antagonists of the Cannabinoid Receptor 1 using an Image-Based Assay - Set 3. [Related pubchem assays (depositor defined):AID1961, AID1965]; format: functional
[8] = molecular target: Albumin (Bos taurus, UniProt P02769); assay: Counterscreen for inhibitors of T-cell receptor (TCR)-CD3 interaction: Fluorescence-based biochemical high throughput dose response assay to identify inhibitors of T-cell receptor (TCR)-CD3 interaction using a TAMRA-labeled BSA probe.; format: functional
[9] = molecular target: T4, Corticotropin-releasing factor receptor 2/Corticotropin-releasing factor-binding protein (Homo sapiens, UniProt P24387+Q13324); assay: activators of CRF receptor 2 with binding protein – uHTS hits, confirmation (AID 602473); format: functional; settings: read-out: EC50_Mean
T4 sequence (Q13324 whole entry): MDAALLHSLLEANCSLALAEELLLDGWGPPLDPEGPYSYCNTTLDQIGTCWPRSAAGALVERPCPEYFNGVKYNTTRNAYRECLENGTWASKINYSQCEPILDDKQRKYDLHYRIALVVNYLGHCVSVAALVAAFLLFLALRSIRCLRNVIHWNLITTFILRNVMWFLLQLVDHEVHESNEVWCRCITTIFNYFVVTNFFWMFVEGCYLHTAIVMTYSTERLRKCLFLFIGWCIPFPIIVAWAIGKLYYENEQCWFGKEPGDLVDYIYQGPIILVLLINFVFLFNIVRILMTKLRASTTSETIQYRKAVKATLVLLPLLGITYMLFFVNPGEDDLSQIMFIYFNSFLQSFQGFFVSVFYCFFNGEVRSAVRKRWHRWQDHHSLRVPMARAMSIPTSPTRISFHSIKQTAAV
T4 sequence (P24387 whole entry): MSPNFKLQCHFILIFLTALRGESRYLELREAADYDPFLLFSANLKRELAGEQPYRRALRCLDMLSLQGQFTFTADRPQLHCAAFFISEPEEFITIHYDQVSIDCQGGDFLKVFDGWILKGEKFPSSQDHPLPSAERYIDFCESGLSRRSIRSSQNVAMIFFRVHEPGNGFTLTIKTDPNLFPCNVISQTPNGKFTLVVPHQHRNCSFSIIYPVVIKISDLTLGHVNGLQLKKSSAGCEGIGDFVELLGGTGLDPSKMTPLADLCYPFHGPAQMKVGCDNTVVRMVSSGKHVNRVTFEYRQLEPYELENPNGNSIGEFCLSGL

[10] = test system: Streptococcus sp. 'group A'; assay: growth inhibition of control SK(-) GAS strain, dose response, counter-screen for streptokinase expression inhibitor project, luminescence, kanamycin, BacTiterGlo, confirmation (AID 1900); format: functional, organism-based
[11] = molecular target: NACHT, LRR and PYD domains-containing protein 3 (Homo sapiens, UniProt Q96P20); assay: NALP3 inhibitors in yeast, dose response, luminescent (AID 488799); format: functional
[12] = test system: Streptococcus; assay: Group A Streptococcus viability loss, dose response, counter-screen for streptokinase expression inhibitor project, luminescence, BacTiterGlo (AID 1915); format: functional, organism-based;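 also: potency for reduction of bacterial viability or growth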
[13] = molecular target: T5, Streptokinase A (Streptococcus pyogenes serotype M1, UniProt P10520); assay: S. pyogenes streptokinase expression inhibitors, potency, dose response, plasminogen activation absorbance, OD405 (AID 1914); format: functional, Streptococcus pyogenes M1 GAS;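 also: secreted streptokinase activity via plasminogen activation per viability signal from cell pellet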
T5 sequence (P10520 whole entry): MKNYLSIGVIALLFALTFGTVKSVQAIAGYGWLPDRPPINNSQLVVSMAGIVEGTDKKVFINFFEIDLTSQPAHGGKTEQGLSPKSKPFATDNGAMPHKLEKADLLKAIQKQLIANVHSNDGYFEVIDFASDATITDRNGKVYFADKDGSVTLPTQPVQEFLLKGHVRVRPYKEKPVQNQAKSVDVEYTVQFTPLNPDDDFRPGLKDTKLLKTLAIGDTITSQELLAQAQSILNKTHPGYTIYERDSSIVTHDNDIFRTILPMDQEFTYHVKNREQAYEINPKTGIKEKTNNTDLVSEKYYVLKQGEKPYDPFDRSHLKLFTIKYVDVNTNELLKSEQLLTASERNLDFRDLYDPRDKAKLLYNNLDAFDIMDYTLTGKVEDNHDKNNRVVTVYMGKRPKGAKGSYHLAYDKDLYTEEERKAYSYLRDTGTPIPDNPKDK

[14] = molecular target: Hexokinase (Trypanosoma brucei, UniProt Q38C41); assay: Confirmation assay for inhibitors of Trypanosoma brucei hexokinase 1-Analogue-first series. [Related pubchem assays (depositor defined):AID1430, AID1632, AID2516, AID2560, AID2579, AID2600, AID449725, AID492951]; format: functional
[15] = viability loss in HRASV12 DRD fibroblasts, dose response, cell-based, DRD BJ fibroblasts, dry powder (AID 493049); format: functional
[16] = cytotoxicity in BJeHLT fibroblasts, dose response, counter-screen for Ras selective lethality project, BJeHLT cells, dry powder (AID 493052); format: functional, cell-based; settings: Homo sapiens
[17] = viability loss in BJeLR (HRASV12) cells, primary screen, Ras selective lethality project, cell-based, Alamar Blue, dry powder (AID 493045); format: functional
[18] = cytotoxicity in BJeH fibroblasts, dose response, counter-screen for Ras selective lethality project, BJeH cells, dry powder (AID 493054); format: functional, cell-based
[19] = molecular target: T6, Tyrosine-protein phosphatase non-receptor type 7 (Homo sapiens, UniProt P35236); assay: redox-dependent HePTP inhibition, mechanism study, biochemical, fluorescence (AID 2068); format: functional
T6 sequence (P35236 whole entry): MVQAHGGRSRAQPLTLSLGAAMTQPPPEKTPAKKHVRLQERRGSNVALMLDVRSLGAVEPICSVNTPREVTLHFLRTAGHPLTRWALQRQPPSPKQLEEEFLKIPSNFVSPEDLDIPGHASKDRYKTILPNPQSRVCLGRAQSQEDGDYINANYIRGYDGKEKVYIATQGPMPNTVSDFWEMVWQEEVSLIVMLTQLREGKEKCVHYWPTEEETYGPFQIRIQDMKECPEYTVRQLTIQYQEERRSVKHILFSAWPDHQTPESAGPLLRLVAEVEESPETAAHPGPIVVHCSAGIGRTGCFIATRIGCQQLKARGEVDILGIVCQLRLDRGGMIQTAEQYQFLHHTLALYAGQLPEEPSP

[20] = molecular target: T7, Dual specificity protein phosphatase 3 (Homo sapiens, UniProt P51452); assay: SAR VHR1 Fluorescent Assay for In Vitro dose response studies Set 2. [Related pubchem assays (depositor defined):AID1654, AID1661, AID1878]; format: functional
[21] = molecular target: T8, Dual specificity protein phosphatase 6 (Rattus norvegicus, UniProt Q64346); format: functional;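 also: confirmatory in vitro dose-response testing of MKP-3 inhibition; recombinant His-tagged MKP-3 made in E. coli BL21 with OMFP substrate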
T8 sequence (Q64346 whole entry): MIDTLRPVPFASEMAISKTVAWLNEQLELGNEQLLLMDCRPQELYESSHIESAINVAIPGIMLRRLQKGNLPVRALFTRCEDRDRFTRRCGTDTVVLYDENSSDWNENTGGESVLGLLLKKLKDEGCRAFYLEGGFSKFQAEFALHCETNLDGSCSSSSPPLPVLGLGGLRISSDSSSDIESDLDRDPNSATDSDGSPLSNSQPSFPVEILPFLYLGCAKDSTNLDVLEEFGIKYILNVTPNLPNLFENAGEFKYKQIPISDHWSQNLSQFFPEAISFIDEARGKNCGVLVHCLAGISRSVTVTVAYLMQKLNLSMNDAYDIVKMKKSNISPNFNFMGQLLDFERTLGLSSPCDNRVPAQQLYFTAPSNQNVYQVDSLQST

[22] = molecular target: T7, Dual specificity protein phosphatase 3; assay: SAR VHR1 Fluorescent Assay for In Vitro dose response studies. [Related pubchem assays (depositor defined):AID1654, AID1661, AID1878, AID1992, AID2004, AID2070, AID2085]; format: functional
[23] = molecular target: T7, Dual specificity protein phosphatase 3; assay: SAR VHR1 absorbance Assay for In Vitro dose response studies. [Related pubchem assays (depositor defined):AID1654, AID1661, AID1878, AID1992, AID2004]
[24] = molecular target: DNA dC->dU-editing enzyme APOBEC-3G (Homo sapiens, UniProt Q9HC16); format: functional;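 also: Dose-response counterscreen measuring inhibition of APOBEC3G DNA deaminase activity, run while confirming APOBEC3A inhibitors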
[25] = molecular target: DNA dC->dU-editing enzyme APOBEC-3A (Homo sapiens, UniProt P31941); assay: Dose Response confirmation of small molecule APOBEC3A DNA Deaminase Inhibitors via a fluorescence-based single-stranded DNA deaminase assay. [Related pubchem assays (depositor defined):AID493011, AID493024]; format: functional
[26] = molecular target: T9, Caspase-3 (Homo sapiens, UniProt P42574); assay: procaspase-3 activators, dose response, biochemical, absorbance (AID 489014)
T9 sequence (P42574 whole entry): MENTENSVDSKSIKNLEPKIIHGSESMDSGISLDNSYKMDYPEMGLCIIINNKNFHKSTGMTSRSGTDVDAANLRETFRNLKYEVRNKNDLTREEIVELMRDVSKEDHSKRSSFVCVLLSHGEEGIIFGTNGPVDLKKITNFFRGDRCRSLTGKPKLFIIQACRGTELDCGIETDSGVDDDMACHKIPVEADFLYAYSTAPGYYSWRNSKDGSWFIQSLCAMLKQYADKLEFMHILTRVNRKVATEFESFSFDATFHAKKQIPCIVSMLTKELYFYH

[27] = molecular target: T10, Caspase-7 (Homo sapiens, UniProt P55210); assay: procaspase-7 activators, dose response, counter-screen for procaspase-3 activator project, biochemical, absorbance (AID 489013)
T10 sequence (P55210 whole entry): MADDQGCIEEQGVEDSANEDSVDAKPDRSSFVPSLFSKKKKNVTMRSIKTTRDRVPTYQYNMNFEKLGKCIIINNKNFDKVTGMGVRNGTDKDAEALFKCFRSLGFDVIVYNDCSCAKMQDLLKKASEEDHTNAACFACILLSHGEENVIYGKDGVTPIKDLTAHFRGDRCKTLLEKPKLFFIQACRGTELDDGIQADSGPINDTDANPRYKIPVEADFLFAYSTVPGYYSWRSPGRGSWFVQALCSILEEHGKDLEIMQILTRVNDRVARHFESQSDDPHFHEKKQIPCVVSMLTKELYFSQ

T1 sequence (P34972 whole entry): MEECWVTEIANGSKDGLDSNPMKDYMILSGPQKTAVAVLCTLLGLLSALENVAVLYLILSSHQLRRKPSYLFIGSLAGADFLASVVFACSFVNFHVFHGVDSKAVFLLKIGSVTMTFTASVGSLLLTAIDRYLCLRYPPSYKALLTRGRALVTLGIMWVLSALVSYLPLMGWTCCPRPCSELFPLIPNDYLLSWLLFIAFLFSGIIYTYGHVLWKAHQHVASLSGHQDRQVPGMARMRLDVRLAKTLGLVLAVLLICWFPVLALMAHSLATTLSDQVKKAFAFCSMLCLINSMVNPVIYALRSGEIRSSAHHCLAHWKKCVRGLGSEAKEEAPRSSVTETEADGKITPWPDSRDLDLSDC
T3 sequence (Q9HC97 whole entry): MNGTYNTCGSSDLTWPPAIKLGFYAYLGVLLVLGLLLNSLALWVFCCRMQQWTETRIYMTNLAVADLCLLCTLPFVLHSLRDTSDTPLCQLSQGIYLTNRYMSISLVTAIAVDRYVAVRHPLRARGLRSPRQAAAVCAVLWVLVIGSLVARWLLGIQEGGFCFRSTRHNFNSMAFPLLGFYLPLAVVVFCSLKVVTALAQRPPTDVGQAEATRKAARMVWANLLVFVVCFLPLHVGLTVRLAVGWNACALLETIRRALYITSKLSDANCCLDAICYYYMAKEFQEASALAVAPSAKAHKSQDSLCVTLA
T2 sequence (P21554 whole entry): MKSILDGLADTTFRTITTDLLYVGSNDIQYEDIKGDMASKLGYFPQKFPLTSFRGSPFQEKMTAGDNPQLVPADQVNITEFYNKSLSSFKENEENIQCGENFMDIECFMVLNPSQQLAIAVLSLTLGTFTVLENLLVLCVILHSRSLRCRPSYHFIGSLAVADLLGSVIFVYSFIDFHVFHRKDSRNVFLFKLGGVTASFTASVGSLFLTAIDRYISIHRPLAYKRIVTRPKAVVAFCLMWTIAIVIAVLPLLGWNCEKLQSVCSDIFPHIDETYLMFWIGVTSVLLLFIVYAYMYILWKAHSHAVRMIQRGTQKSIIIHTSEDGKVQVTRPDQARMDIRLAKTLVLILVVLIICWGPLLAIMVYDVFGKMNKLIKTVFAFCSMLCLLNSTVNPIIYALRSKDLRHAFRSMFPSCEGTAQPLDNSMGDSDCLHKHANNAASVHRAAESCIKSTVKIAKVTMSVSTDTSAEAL
T7 sequence (P51452 whole entry): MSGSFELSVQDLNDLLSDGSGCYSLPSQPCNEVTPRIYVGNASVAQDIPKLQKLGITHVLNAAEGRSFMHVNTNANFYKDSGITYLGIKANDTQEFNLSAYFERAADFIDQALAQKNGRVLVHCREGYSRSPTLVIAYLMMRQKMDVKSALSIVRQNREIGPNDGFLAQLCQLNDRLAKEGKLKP
DNA dC->dU-editing enzyme APOBEC-3G, sequence (Q9HC16 whole entry): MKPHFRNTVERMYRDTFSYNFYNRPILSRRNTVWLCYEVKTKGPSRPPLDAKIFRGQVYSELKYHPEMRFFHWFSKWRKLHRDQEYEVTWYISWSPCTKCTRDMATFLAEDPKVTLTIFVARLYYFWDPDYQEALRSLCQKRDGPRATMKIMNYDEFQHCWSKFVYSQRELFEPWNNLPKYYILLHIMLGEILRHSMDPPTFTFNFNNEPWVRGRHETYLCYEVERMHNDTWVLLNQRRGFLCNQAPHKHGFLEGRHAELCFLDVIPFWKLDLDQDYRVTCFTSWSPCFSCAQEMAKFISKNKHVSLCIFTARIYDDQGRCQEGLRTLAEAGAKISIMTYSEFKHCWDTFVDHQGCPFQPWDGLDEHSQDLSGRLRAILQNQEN
DNA dC->dU-editing enzyme APOBEC-3A, sequence (P31941 whole entry): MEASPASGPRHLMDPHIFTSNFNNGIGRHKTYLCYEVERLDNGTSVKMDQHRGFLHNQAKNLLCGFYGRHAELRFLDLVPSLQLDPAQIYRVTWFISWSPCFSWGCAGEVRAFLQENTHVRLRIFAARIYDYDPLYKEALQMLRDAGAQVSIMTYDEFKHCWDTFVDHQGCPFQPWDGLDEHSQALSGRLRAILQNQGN
Hexokinase, sequence (Q38C41 whole entry): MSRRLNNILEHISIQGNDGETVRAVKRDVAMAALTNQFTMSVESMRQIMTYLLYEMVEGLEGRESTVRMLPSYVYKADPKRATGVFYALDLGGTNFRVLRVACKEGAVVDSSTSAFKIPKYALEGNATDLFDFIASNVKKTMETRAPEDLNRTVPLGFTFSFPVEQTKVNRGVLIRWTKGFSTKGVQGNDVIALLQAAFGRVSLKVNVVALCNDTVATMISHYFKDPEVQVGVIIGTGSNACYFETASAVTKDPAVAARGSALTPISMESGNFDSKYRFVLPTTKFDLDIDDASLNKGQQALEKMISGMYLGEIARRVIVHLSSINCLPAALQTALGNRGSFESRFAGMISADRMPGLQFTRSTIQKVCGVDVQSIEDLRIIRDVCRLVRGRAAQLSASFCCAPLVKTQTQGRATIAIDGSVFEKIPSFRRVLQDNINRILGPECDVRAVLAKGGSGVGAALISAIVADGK
G-protein coupled receptor 55, sequence (Q9Y2T6 whole entry): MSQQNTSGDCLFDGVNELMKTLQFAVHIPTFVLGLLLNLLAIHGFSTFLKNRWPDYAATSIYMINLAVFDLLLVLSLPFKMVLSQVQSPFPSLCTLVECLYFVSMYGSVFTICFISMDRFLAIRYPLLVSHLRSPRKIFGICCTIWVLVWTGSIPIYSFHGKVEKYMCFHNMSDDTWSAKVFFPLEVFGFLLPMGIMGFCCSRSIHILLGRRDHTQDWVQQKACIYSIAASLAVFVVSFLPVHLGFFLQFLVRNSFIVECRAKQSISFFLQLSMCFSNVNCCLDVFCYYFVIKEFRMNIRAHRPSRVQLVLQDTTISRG
Albumin, sequence (P02769 whole entry): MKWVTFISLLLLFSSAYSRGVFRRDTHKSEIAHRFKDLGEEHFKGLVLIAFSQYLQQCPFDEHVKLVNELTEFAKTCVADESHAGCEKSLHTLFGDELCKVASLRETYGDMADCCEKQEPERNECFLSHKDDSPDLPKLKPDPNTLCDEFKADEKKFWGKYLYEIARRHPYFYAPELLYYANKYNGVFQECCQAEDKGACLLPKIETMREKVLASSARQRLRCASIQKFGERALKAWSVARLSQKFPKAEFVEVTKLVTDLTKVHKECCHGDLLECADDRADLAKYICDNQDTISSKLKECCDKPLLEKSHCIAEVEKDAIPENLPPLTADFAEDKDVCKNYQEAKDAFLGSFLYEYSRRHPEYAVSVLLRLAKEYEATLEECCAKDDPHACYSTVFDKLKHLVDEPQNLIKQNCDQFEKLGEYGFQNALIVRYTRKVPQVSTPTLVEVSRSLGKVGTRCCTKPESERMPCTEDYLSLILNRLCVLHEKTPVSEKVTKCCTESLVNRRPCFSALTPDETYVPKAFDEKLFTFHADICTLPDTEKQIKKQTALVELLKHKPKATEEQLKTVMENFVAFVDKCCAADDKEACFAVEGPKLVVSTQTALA
NACHT, LRR and PYD domains-containing protein 3, sequence (Q96P20 whole entry, the tested form may be a part): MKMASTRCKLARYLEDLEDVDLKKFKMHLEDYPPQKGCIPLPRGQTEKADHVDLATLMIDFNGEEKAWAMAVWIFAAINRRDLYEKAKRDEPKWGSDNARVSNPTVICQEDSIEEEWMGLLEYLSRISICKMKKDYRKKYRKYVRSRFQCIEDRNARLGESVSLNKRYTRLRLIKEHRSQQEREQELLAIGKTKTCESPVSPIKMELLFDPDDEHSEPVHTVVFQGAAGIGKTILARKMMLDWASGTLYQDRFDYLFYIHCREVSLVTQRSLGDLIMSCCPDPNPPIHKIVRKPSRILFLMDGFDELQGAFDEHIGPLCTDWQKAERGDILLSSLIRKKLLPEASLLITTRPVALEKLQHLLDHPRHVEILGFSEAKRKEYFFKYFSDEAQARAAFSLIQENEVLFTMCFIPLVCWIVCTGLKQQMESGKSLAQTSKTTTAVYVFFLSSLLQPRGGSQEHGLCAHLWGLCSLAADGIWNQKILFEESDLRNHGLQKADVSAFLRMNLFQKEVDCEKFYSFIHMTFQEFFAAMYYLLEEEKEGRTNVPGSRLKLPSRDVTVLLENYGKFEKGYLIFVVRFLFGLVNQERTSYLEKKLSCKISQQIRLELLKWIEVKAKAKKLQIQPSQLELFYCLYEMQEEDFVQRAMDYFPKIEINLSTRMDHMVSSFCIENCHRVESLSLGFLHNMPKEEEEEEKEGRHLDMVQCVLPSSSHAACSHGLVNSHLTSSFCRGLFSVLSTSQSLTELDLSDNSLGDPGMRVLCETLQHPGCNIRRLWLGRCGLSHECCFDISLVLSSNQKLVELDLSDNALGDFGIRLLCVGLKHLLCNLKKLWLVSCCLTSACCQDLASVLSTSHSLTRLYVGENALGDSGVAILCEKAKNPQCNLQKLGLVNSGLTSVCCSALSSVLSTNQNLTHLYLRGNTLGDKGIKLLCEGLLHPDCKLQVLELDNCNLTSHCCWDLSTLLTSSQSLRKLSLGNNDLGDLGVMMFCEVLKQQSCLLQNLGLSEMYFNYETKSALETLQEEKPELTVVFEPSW

COc1ccc2c(c1)cc(C)c1nnc(SCC(=O)Nc3nc(C)cs3)n12
IC50 [1]: > 32 µM (inactive)
EC50 [2]: > 32 µM (inactive)
EC50 [3]: > 32 µM (inactive)
EC50 [4]: > 32 µM (inactive)
IC50 [5]: > 32 µM (inactive)
EC50 [6]: > 32 µM (inactive)
IC50 [7]: > 32 µM (inactive)

Cn1c(=O)c(C(=O)NNC(=O)c2ccccc2F)c(O)c2ccccc21
IC50 [8]: > 94.1 µM (inactive)
EC50 [9]: 5.36 µM (active)
EC50 [10]: 4.65 µM (active)
IC50 [11]: 1.94 µM (active)
EC50 [12]: 18.6 µM (active)
EC50 [13]: > 150 µM (not active)

N#Cc1ccc(Oc2ccc3c(c2)B(O)OC3)cc1
IC50 [14]: > 25 µM (inactive)

O=C(NCCc1ccccc1)C(c1cccs1)N(C(=O)CCl)c1cccc(Cl)c1 (stereo unspecified)
AC50 [15]: 0.154 µM (active)
AC50 [16]: 0.331 µM (active)
AC50 [17]: 0.156 µM (active)
AC50 [18]: 0.544 µM (active)

NS(=O)(=O)c1cccc(C(=O)NC2CCSc3ccccc32)c1 (stereo unspecified)
IC50 [19]: > 100 µM (inactive)
IC50 [20]: > 100 µM (inactive)
IC50 [21]: > 100 µM (inactive)
IC50 [22]: > 100 µM (inactive)
IC50 [23]: > 100 µM (inactive)

CCN1CCN(c2ccc(S(=O)(=O)N3CCCCC3)cc2NC(=O)c2ccc(OC(F)F)cc2)CC1
IC50 [24]: 9.05 µM (active)
IC50 [25]: 10.9 µM (active)

CC(C)(C)c1ccc(C(=O)Nc2cc(Br)ccc2C(=O)O)cc1
IC50 [14]: 2.39 µM (active)

COc1ccc(N(C(=O)CCl)C(C)(C)C(=O)NCCc2ccccc2)cc1Cl
AC50 [15]: 0.06 µM (active)
AC50 [16]: 0.127 µM (active)
AC50 [17]: 0.058 µM (active)
AC50 [18]: 0.254 µM (active)

CCCc1cc(C(=O)Nc2cc(S(=O)(=O)N3CCOCC3)ccc2OC)sc1C
IC50 [1]: > 32 µM (inactive)
EC50 [2]: > 32 µM (inactive)
EC50 [3]: > 32 µM (inactive)
EC50 [4]: > 32 µM (inactive)
IC50 [5]: > 32 µM (inactive)
EC50 [6]: > 32 µM (inactive)
IC50 [7]: 7.68 µM (active)

CC(NC(=O)c1cc2cc([N+](=O)[O-])ccc2oc1=O)C1CCCO1 (stereo unspecified)
EC50 [26]: 13.4 µM (inactive)
EC50 [27]: 20.2 µM (inactive)

COc1ccccc1OC(C)C(=O)N1CCC(Cc2ccccc2)CC1 (stereo unspecified)
IC50 [24]: 6.99 µM (active)
IC50 [25]: 7.11 µM (active)
